Data published in article PMC8495968, “Towards optimizing peptide-based inhibitors of protein–protein interactions: predictive saturation variation scanning (PreSaVS)” (RSC Chemical Biology, 2021).
Several values for one entry are separate records, joined by “and”; a condition that tells them apart may be missing. Equal values may be shown once.

How the values were obtained:
MCL-1 = molecular target: T1, MCL-1 (Homo sapiens, UniProt Q07820); assay: Isothermal calorimetry (ITC) of peptide binding to MCL-1; conditions: 50 mM Tris, 150 mM NaCl, pH 7.5, 150 μM peptide; for Kd: 25°C, one-binding site model
T1 construct: 172-327 was expressed; His-SUMO (N, cleaved yes); made in house
Description: Peptide variants were prepared as N-terminal acetamides and C-terminal amides (see ESI ^†). […] Lastly, structural effects of these variations were investigated using circular dichroism (CD) spectroscopy (Fig. S4, ESI ^†).
(b) ITC data (50 mM Tris, 150 mM NaCl, pH 7.5, 150 μM peptide). […]
ITC experiments were carried out using a Microcal ITC200i instrument (Malvern) at 25°C in […]
[…] The protein of interest was dialysed against the buffer prior to experiment, and lyophilized peptides were dissolved in the same buffer. Protein was present in the cell and titrated with peptide solutions loaded into the syringe using 20 x 2 uL injections with 120 s spacing between the injections. Heats of peptide dilution were subtracted from each measurement raw data. Data was analysed using Microcal Origin 8 and

hSUMO-1 18-97 = molecular target: T2, hSUMO-1 18-97 (Homo sapiens, UniProt P63165); assay: Fluorescence anisotropy competition assay, FITC-peg-SIM tracer / SUMO; assay type: binding; conditions: for inhibitory potency in competition FA: competition FA vs SIM tracer/SUMO, relative to SIM2705–2717; for IC50: competition FA, 50 mM Tris, 150 mM NaCl, 25 nM tracer, 100 nM SUMO, read after 45 min, triplicate
T2 construct: 18-97; His-TEV (N, cleaved yes); made in house
Description: hSUMO-1 18-97 was expressed and purified as previously described from a pet19b His-TEV-SUMO-1 (18-97) construct with cleavage of the tag using TEV protease.4 […]
(§1) Fluorescence anisotropy assays were performed in 384-well plates (Greiner Bio-one). Each experiment was run in triplicate and the fluorescence anisotropy measured using a Perkin Elmer EnVisionTM 2103 MultiLabel plate reader, with excitation at 480 nm (30 nm bandwidth), polarised dichroic mirror at 505 nm and emission at 535 nm (40 nm bandwidth, S and P polarised). All assays were performed in 20 mM Tris, 100 mM NaCl, 0.1 mM DTT, pH 7.5 unless otherwise stated and data analysed following previously published methods.
(§2) Fluorescence anisotropy data was processed as described previously.[2] Briefly. the data from both the P (perpendicular intensity) and S (parallel intensity) channels, resulting from this measurement and corrected by subtracting the corresponding control wells, were used to calculate the intensity and anisotropy for each well following Equations 1 and 2: […]
(§3) For direct titration the average anisotropy (across three experimental replicates) and the standard deviation of these values were then calculated and fit to a logistic model using OriginPro 9.0 to determine the maximum and minimum anisotropies then the fraction bound calculated (Equation 3) and used to determine Kd (equation 4)
(§4) Lb= (r‒rmin)/λ(rmax‒r)+r‒rmin Equation 3
(§5) y= {(k+ x+[ FL])‒√{k+x+[FL] 2‒4x[FL]}}/2 Equation 4 r = anisotropy, I = total intensity, P = perpendicular intensity, S = parallel intensity, G = instrument factor which was set to 1 for all experiments, Lb = fraction ligand bound, λ = […]
(§6) For competition experiments, the anisotropies were determined as for the direct titration and then plotted against inhibitor concentration and fit (equation 5) to determine the IC50 and error […]
(§7) y = rmax + (rmin-rmax)/(1+(x/xo)p) Equation 5
(§8) Where xo represents the IC50 […]
(§9) Competition binding assays:
(§10) FA competition assays were performed in 384 well plates with the concentration of variant […]
(§11) with fixed protein and tracer concentrations. FITC-labelled peptide was added to each well to […]
(§12) For control wells, the tracer peptide was replaced with an identical volume of assay buffer.
(§13) The total volume in each well was 60 μL. […]

hMCL-1 172-327 = molecular target: T3, hMCL-1 172-327 (Homo sapiens, UniProt Q07820); assay: Fluorescence anisotropy competition assay, FITC-Ahx-BIM75–85 tracer / MCL-1; assay type: binding; conditions: for inhibitory activity in competition FA: competition FA vs FITC-Ahx-BIM75–85/MCL-1, relative to NOXA75–93
T3 construct: 172-327 was expressed; His-SUMO (N, cleaved yes); made in house
Description: as §1, §2, §3, §4, §5, §6, §7, §8, §9, §10, §11, §12, §13

α-chymotrypsin = assay: Proteolysis by α-chymotrypsin; assay type: in vitro ADME, bovine; conditions: 45 μM peptide, 0.25 μg/ml α-chymotrypsin, 25 °C, 50 mM Tris-HCl pH 8.0, 150 mM NaCl, 10 mM CaCl2; LC-MS EIC of full-length peptide; triplicate
Text: An advantage of PreSaVS lies in the ability to identify tolerated variants – in terms of target binding affinity – with more desirable physicochemical properties (Table S3 for calculated physicochemical properties, ESI ^†). […] This may arise from subtle changes in protease recognition specificity, although given proteases recognise substrates in an extended, β-like conformation as is the case for the SIM2705–2717/SUMO interaction, secondary structure propensity may also play a role.
Figure S7. Proteolysis data for (a) NOXA75-93 (45 μM peptide in the presence of 0.25 μg/ml α-chymotrypsin at 25 °C) and (b) SIM2705-2717 (40 μM peptide in the presence of 0.75 μg/mL Proteinase K at 25 °C). Data points show the mean ± standard deviation over triplicate measurements. Insets show t1/2 values.
as §8
diluted over 16-24 points using 2-fold dilutions. […]
of assay buffer. Plates were read after 45 minutes. […]
The total volume in each well was 60 μL. Plates were read after 45 minutes of incubation at […]
uL injections with 120 s spacing between the injections. […] Data was analysed using Microcal Origin 8 and fitted to a one-binding site model […]
Peptide solubility was assessed using a qualitative test.
= 5690 M-1cm-1), concentrations were determined based on the absorbance at 280 nm. For NOXA variants, concentrations were determined based on absorbance at 205 nm (ε 205 = […]

T2 sequence (P63165 18-97): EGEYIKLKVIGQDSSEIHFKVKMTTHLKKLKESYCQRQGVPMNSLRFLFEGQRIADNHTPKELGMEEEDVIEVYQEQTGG
T3 sequence (Q07820 172-327): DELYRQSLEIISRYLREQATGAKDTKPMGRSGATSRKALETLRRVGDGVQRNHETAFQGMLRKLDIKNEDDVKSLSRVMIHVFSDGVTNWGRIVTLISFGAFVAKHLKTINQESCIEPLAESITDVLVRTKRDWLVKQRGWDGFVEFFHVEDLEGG
T1 sequence (Q07820 172-327): as above

| ΔG (MCL-1) [kcal/mol] | ΔH (MCL-1) [kcal/mol] | IC50 (hSUMO-1 18-97) | IC50 (hMCL-1 172-327) [µM] | Kd (MCL-1) [µM] | inhibitory activity in competition FA (hMCL-1 172-327) | Molecule | also measured |
| --- | --- | --- | --- | --- | --- | --- | --- |
| – | – | > 200 µM | – | – | – | CC[C@H](C)[C@H](NC(=O)[C@H](CCC(=O)O)NC(=O)[C@H](CC(N)=O)NC(=O)[C@H](CC(=O)O)NC(C)=O)C(=O)N[C@@H](CCC(=O)O)C(=O)N[C@H](C(=O)N[C@@H](CCC(=O)O)C(=O)N[C@H](C(=O)N[C@H](C(=O)N[C@@H](Cc1c[nH]c2ccccc12)C(=O)N[C@@H](CCC(=O)O)C(=O)N[C@@H](CCCCN)C(=O)N[C@@H](CCCCN)C(N)=O)C(C)C)[C@@H](C)CC)C(C)C [SIM2705–2717I2711E] | inhibitory potency in competition FA (hSUMO-1 18-97): lost inhibitory potency |
| – | – | 16.2 µM and 16.1 µM | – | – | – | CC[C@H](C)[C@H](NC(=O)[C@H](CCC(=O)O)NC(=O)[C@H](CC(N)=O)NC(=O)[C@H](CC(=O)O)NC(C)=O)C(=O)N[C@@H](CCC(=O)O)C(=O)N[C@H](C(=O)N[C@H](C(=O)N[C@H](C(=O)N[C@H](C(=O)N[C@@H](Cc1c[nH]c2ccccc12)C(=O)N[C@@H](CCC(=O)O)C(=O)N[C@@H](CCCCN)C(=O)N[C@@H](CCCCN)C(N)=O)C(C)C)[C@@H](C)CC)[C@@H](C)CC)[C@@H](C)CC [SIM2705–2717V2710I] | – |
| – | – | > 200 µM | – | – | – | CC[C@H](C)[C@H](NC(=O)[C@H](CCC(=O)O)NC(=O)[C@H](CC(N)=O)NC(=O)[C@H](CC(=O)O)NC(C)=O)C(=O)N[C@@H](CCC(=O)O)C(=O)N[C@H](C(=O)N[C@H](C(=O)N[C@H](C(=O)N[C@@H](CCC(=O)O)C(=O)N[C@@H](Cc1c[nH]c2ccccc12)C(=O)N[C@@H](CCC(=O)O)C(=O)N[C@@H](CCCCN)C(=O)N[C@@H](CCCCN)C(N)=O)[C@@H](C)CC)[C@@H](C)CC)C(C)C [SIM2705–2717V2713E] | inhibitory potency in competition FA (hSUMO-1 18-97): lost inhibitory potency |

The remaining lines, values behind:

| Molecule | ΔG (MCL-1) [kcal/mol] | ΔH (MCL-1) [kcal/mol] | IC50 (hSUMO-1 18-97) | IC50 (hMCL-1 172-327) [µM] | Kd (MCL-1) [µM] | inhibitory activity in competition FA (hMCL-1 172-327) | also measured |
| --- | --- | --- | --- | --- | --- | --- | --- |
| CC[C@H](C)[C@H](NC(=O)[C@H](CCCNC(=N)N)NC(=O)[C@H](CCCNC(=N)N)NC(=O)[C@H](CC(C)C)NC(=O)[C@H](CCC(N)=O)NC(=O)[C@H](C)NC(=O)[C@H](C)NC(C)=O)C(=O)NCC(=O)N[C@@H](CC(=O)O)C(=O)N[C@@H](CCCCN)C(=O)N[C@H](C(=O)N[C@@H](CC(N)=O)C(=O)N[C@@H](CC(C)C)C(=O)N[C@@H](CCCNC(=N)N)C(=O)N[C@@H](CCC(N)=O)C(=O)N[C@@H](CCCCN)C(=O)N[C@@H](CC(C)C)C(=O)N[C@@H](CC(C)C)C(=O)N[C@@H](CC(N)=O)C(N)=O)C(C)C [NOXA75–93] | -2.08 | -4.59 ± 0.359 | – | – | – | – | – |
| Ac-AAQFRRIGDKVNLRQKLLN-NH2 [NOXA75–93L78F] | – | – | – | 2.7 ± 0.1 | 1.7 ± 0.1 | – | increased rate of cleavage by α-chymotrypsin relative to NOXA75–93 (α-chymotrypsin): ≈ 10 fold |
| Ac-AAQLRRIGDKFNLRQKLLN-NH2 [NOXA75–93V85F] | -2 | -3.66 ± 0.813 | – | > 20 | 0.8 ± 0.1 | weaker inhibitory activity | −TΔS (MCL-1): 1.65 kcal/mol |
| Ac-AAQWRRIGDKVNLRQKLLN-NH2 [NOXA75–93L78W] | -1.83 | -3.13 ± 0.932 | – | 2.2 ± 0.1 | 2.4 ± 0.8 | tolerated | −TΔS (MCL-1): 1.31 kcal/mol |
| Ac-AAQYRRIGDKVNLRQKLLN-NH2 [NOXA75–93L78Y] | – | – | – | > 100 | – | poor inhibitor | increased rate of cleavage by α-chymotrypsin relative to NOXA75–93 (α-chymotrypsin): ≈ 10 fold |
